According to patent US7772240B2, “Trans-1(6-chloro-3-phenylindan-1-yl)-3,3-dimethylpiperazine” (H. Lundbeck A/S, priority 2003, dated 2010):

How the values were obtained:
D1/D2 = details: cited from earlier work
5-HT2 = details: cited from earlier work
α1 adrenoceptors = details: cited from earlier work
D1 and D2 = details: cited from earlier work
human D2 receptor [1] = target: T1, human D2 receptor (Homo sapiens, UniProt P14416); test: DA D2 efficacy assay, inhibition of D2 mediated inhibition of cAMP formation in CHO cells; format: cell-based
T1 construct: expressed in transfected cells; host or cells: CHO cells
T1 sequence (P14416 whole entry): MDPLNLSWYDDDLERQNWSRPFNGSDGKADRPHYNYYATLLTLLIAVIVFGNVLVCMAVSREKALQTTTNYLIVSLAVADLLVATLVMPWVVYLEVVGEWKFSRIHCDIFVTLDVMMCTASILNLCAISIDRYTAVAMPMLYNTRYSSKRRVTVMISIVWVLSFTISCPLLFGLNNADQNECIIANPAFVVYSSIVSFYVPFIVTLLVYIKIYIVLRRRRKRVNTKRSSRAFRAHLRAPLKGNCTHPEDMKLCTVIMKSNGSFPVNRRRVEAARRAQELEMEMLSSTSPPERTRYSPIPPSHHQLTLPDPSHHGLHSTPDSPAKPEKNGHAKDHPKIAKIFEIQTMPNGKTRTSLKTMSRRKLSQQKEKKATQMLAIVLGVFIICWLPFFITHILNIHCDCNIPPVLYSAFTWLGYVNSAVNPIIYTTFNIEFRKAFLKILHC
Method: The ability of the compounds to inhibit the D2 receptor mediated inhibition of cAMP formation in CHO cells transfected with the human D2 receptor was measure as follows.
Cells were seeded in 96 well plates at a concentration of 8000 cells/well 3 days prior to the experiment. On the day of the experiment the cells were washed once in preheated G buffer (1 mM MgCl2, 0.9 mM CaCl2, 1 mM IBMX in PBS) and the assay was initiated by addition of 100 μl of a mixture of 1 μM quinpirole, 10 μM forskolin and test compound in G buffer. The cells were incubated 20 minutes at 37° C. and the reaction was stopped by the addition of 100 μl S buffer (0.1 M HCl and 0.1 mM CaCl2) and the plates were placed at 4° C. for 1 hour. 68 μl N buffer (0.15 M NaOH and 60 mM NaAc) were added and the plates were shaken for 10 minutes. 60 μl of the reaction were transferred to cAMP FlashPlates (DuPont NEN) containing 40 μl 60 mM NaAc pH 6.2 and 100 μl IC mix (50 mM NaAc pH 6.2, 0.1% NaAzid, 12 mM CaCl2, 1% BSA and 0.15 μCi/ml ^125I-cAMP) were added. Following an 18-hour incubation at 4° C. the plates were washed once and counted in a Wallac TriLux counter.

[2] = QT-interval in the alpha-chloralose anaesthetised rabbit; format: in vivo
Method: The model described in the following was originally designed as a proarrhytmic model by Carlsson et al, [J Cardiovasc Pharmacol. 1990;16:276-85.] and has been modified to fit into screening set-up as described below under “animal preparation”.
Male rabbits (HsdIf:NZW, outbreed) weighing 2.0-2.8 kg were purchased from Harlan (The Netherlands). Individual body weights were measured and recorded on the day of experiment. […]
ECG, blood pressure and HR were continuously recorded on a Maclab 8/s using the Chart software v3.6.1 for the Macintosh computer. […] Effects on the electrocardiogram (PQ-, QRS-, QT-, QTc-intervals and heart rate) and mean arterial blood pressure (MAP) were recorded and measured electronically.

human CYP2D6 = target: T2, human CYP2D6 (Homo sapiens, UniProt P10635); test: CYP2D6 inhibitor assay (recombinant microsomes, AMMC substrate); format: in vitro ADME; details: result in words
T2 construct: purchased BD Biosciences (Gentest) 456217; host or cells: baculovirus/insect cells
T2 sequence (P10635 whole entry): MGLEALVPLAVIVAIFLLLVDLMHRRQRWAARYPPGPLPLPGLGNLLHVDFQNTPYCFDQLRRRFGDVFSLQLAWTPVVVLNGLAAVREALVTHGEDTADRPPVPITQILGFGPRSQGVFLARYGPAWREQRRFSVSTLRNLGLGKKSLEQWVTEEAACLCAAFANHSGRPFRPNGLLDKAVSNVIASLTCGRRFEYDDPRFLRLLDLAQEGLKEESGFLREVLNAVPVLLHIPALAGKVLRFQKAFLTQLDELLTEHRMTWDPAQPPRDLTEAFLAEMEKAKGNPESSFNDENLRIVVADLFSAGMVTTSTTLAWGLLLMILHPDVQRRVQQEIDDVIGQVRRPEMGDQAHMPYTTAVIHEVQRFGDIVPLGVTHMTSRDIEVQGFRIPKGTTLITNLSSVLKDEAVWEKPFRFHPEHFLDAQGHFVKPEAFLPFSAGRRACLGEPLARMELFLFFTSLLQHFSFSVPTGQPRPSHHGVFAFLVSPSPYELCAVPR
Method: Principle: The inhibition of human CYP2D6 is assessed using microsomes prepared from baculovirus/insect cells cDNA expressing CYP2D6 as enzyme sources and the specific CYP2D6 substrate AMMC (3-[2-(N,N-diethyl-N-methylammonium)-ethyl]-7-methoxy-4-methylcoumarin). AMMC is O-demethylated to AHMC (3-[2-(N,N-diethylamino)ethyl]-7-hydroxy-4-methylcoumarin) which is detected by measuring appearance of fluorescence.
Microsomes prepared from baculovirus/insect cells cDNA expressing CYP2D6 were obtained from BD Biosciences (Gentest 456217). Fluorescence measured Ex. (405 nm) Em. (465 nm) by a SpectroFluor Plus Plate Reader (Tecan Nordic). Incubations with the recombinant CYP2D6 micrsomes contained 1.5 pmol of the recombinant CYP2D6 in 0.2 ml total volume 100 mM phosphate buffer at pH 7.4 containing […] AMMC (3-[2-(N,N-diethyl-N-methylammonium)-ethyl]-7-methoxy-4-methylcoumarin) with a low NADPH-regenerating system consisting of 0.0082 mM NADP^+, 0.41 mM glucose 6-phosphate, 0.41 mM magnesium chloride and 0.4 units/ml glucose-6-phoshate dehydrogenase. The incubation time was 45 min and the incubations were quenched by addition of 0.075 ml 80% Acetonitrile 20% 0.5 M Tris base. All chemicals were of analytical grade from Sigma (St. Louis, Mo.). […] The IC50 values were calculated by linear interpolation.

alpha-1 adrenoceptors = test: Alpha-1 adrenoceptor binding ([3H]Prazosin); set-up: species or system rat
Method: (§1) For all assays: Results are expressed as percent inhibition of control specific binding and the IC50 values (concentration causing a half-maximal inhibition of control specific binding) are determined by non-linear regression analysis using Hill equation curve fitting. The inhibition constants (Ki) were calculated from the Cheng Prusoff equation Ki=IC50/(1+(L/KD)), where L equals the concentration of radioligand in the assay) and KD equals the affinity of the radioligand for the receptor.
Chinese hamster ovary (CHO) cell lines expressing rat alpha1d and Baby hamster Kidney (BHK) cells expressing bovine alpha1a were generated using standard stable transfection techniques. The Rat-1 cell line expressing the hamster alpha1b receptor was obtained from University of Utah, Salt Lake City, Utah. […] Total binding was determined using assay buffer and non-specific binding was defined in the presence of 1 μM WB-4101 for all subtypes of alpha1 receptors. […] In all assays bound and free radioactivity were separated by vacuum filtration on GF/B filters pretreated with Polyetyleneimine (PEI) and counted in a scintillation counter.
By this method, the inhibition by drugs of the binding of [^3H]Prazosin (0.25 nM) to alpha-1 receptors in membranes from rat brain is determined in vitro. […]

human D2 receptor [3] = target: T1, human D2 receptor; test: DA D2 receptor binding ([3H]-Spiperone)
Method: as §1
CHO cells expressing approximately 800 fmol/mg human recombinant D2 receptors were generated standard stable transfection techniques. […] Total binding was determined in the presence of buffer and non-specific binding was determined in the presence of 10 μM haloperidol. The mixture was incubated for 30 minutes at 37° C., cooled briefly on ice. Bound and free radioactivity was separated by vacuum filtration on GF/C filters pretreated with 0.1% Polyetyleneime (PEI) and filters were counted in a scintillation counter.

human D1 receptors [4] = target: T3, human D1 receptors (Homo sapiens, UniProt P21728); test: DA D1 receptor binding ([3H]-SCH23390, Cerep); set-up: host or cells: CHO cells (membranes)
T3 sequence (P21728 whole entry): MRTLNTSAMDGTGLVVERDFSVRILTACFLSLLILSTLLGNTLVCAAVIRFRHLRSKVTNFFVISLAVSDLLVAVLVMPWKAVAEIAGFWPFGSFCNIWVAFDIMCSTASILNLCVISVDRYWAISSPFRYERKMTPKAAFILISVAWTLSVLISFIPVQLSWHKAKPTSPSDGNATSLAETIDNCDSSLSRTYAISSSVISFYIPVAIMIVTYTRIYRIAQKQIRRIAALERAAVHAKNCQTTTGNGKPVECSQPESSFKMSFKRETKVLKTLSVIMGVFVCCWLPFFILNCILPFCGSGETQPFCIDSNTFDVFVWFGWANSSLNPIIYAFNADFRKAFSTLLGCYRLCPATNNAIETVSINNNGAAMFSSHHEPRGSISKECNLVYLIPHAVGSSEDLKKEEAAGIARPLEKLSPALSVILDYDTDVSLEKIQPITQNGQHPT
Method: For all assays: Results are expressed as percent inhibition of control specific binding and the IC50 values (concentration causing a half-maximal inhibition of control specific binding) are determined by non-linear regression analysis using Hill equation curve fitting. The inhibition constants (Ki) were calculated from the Cheng Prusoff equation Ki=IC50/(1+(L/KD)), where L equals the concentration of radioligand in the assay) and KD equals the affinity of the radioligand for the receptor. Affinities towards human D1 receptors were determined at the contract laboratory Cerep using the catalog reference assay no 803-1h. Membranes from CHO cells expressing human recombinant D1 receptors were used. 0.3 nM [^3H]-SCH23390 was used as radioligand and compounds were tested in a serial dilution concurrently with the reference compound SCH23390 in order to assess the assay suitability. Aliqouts were incubates at 22° C. for 60 min and bound radioactivity are measured with a liquid scintillation counter. Specific control binding to the D1 receptors was defined as the difference between the total binding determined without compound present and the non-specific binding determined in the presence of 1 μm SCH 23390.

5-HT2A receptors = target: T4, 5-HT2A receptors (Homo sapiens, UniProt P28223); test: Serotonin 5-HT2A efficacy assay (Ca2+ fluorescence, CHO cells); format: cell-based
T4 construct: expressed in transfected cells; host or cells: CHO cells
T4 sequence (P28223 whole entry): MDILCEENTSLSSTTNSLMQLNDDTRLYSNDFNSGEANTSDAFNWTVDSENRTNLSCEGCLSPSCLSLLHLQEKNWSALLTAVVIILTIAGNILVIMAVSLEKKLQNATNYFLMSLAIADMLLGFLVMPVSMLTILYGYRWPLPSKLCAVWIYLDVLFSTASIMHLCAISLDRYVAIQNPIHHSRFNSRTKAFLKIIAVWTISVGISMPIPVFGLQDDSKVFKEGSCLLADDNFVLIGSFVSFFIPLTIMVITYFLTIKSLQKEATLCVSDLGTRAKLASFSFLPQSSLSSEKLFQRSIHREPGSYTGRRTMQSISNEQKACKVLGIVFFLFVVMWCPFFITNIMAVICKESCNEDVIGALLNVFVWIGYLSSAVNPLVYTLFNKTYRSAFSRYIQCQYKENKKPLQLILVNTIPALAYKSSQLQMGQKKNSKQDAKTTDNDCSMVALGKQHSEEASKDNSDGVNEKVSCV
Method: 2 or 3 days before the experiment, CHO cells expressing 250 fmol/mg S-HT2A receptors are plated at a density sufficient to yield a mono-confluent layer on the day of the experiment. The cells are dye loaded (Ca^2+-kit from Molecular Devices and using Hank's balanced salt w/o phenol red, added 20 mM HEPES and pH adjusted to 7.4 with 2M NaOH as assaybuffer) for 60 minutes at 37° C. in a 5% CO2 incubator at 95% humidity. Lacer intensity is set to a suitable level to obtain basal values of approximately 8000-10000 fluorescence units. The variation in basal fluorescence should be less than 10%. EC50 values are assessed using increasing concentrations of test compound covering at least 3 decades. IC50 values are assessed challenging the same range of concentrations of test substances with EC85 of 5-HT. Test substances are added to the cells 5 minutes before the 5-HT. […] Maximum inhibition is the level of inhibition the curve reaches. It is expressed as the percentage inhibition at that level and used to distinguish full and partial antagonists.

human D1 receptors [5] = target: T3, human D1 receptors; test: DA D1 efficacy assay, inhibition of D1 mediated cAMP formation in CHO cells; format: cell-based; set-up: expressed in transfected cells; host or cells: CHO cell line generated in-house
Method: The ability of the compounds to inhibit the D1 receptor mediated cAMP formation in a CHO cell line generated in-house stably expressing the human recombinant D1 receptor was measured as follows. Cells were seeded in 96-well plates at a concentration of 11000 cells/well 3 days prior to the experiment. On the day of the experiment the cells were washed once in preheated G buffer (1 mM MgCl2, 0.9 mM CaCl2, 1 mM IBMX in PBS) and the assay was initiated by addition of 100 μl of a mixture of 30 nM A68930 and test compound diluted in G buffer. The cells were incubated for 20 minutes at 37° C. and the reaction was stopped by the addition of 100 μl S buffer (0.1 M HCl and 0.1 mM CaCl2) and the plates were placed at 4° C. for 1 hour. 68 μl N buffer (0.15 M NaOH and 60 mM NaAc) was added and the plates were shaken for 10 minutes. 60 μl of the reaction were transferred to cAMP FlashPlates (DuPont NEN) containing 40 μl 60 mM NaAc pH 6.2 and 100 μl IC mix (50 mM NaAc pH 6.2, 0.1% NaAzid, 12 mM CaCl2, 1% BSA and 0.15 μCi/ml ^125I-cAMP) were added. Following an 18-hour incubation at 4° C. the plates were washed once and counted in a Wallac TrLux counter.

Row | functional activity at dopamine D2 receptors (human D2 receptor [1]) | inhibition of CYP2D6 (human CYP2D6) | affinity for alfa1 adrenoceptors (alpha-1 adrenoceptors) | affinity for dopamine D2 receptors (human D2 receptor [3]) | affinity for dopamine D1 receptors (human D1 receptors [4]) | functional activity at serotonin 5-HT2a receptors (5-HT2A receptors) | functional activity at dopamine D1 receptors (human D1 receptors [5]) | Structure (SMILES) | D1/D2 antagonism in vitro (D1/D2) | 5-HT2 antagonism (5-HT2) | affinity for α1 adrenoceptors (α1 adrenoceptors) | D1 and D2 antagonism in vivo (D1 and D2) | prolonging effect on the QT-interval in the electrocardiogram (ECG) [2]
1 |  |  |  |  |  |  |  | CN1CCN([C@@H]2C[C@@H](c3ccccc3)c3ccc(Cl)cc32)CC1(C)C [(−)-38] | potent D1/D2 antagonists showing some D1 selectivity | potent 5-H T2 antagonist | high affinity | equipotent as D1 and D2 antagonist | 
2 | antagonist | relatively weak inhibitor | high affinity | high affinity | high affinity | antagonist | antagonist | CC1(C)CN([C@@H]2C[C@@H](c3ccccc3)c3ccc(Cl)cc32)CCN1 [Compound I, trans-1-((1R,3S)-6-chloro-3-phenylindan-1-yl)-3,3-dimethylpiperazine] |  |  |  |  | relatively low prolonging effect
3 |  | considerable more potent |  |  |  |  |  | CC1(C)CN([C@@H]2C[C@@H](c3ccccc3)c3ccc(Cl)cc32)CCN1 (racemic) [racemate of the compound of the present invention, trans-1-(6-chloro-3-phenylindan-1-yl)-3,3-dimethylpiperazine] |  |  |  |  | 
